According to patent US12458021B2, “Microbiocidal derivatives” (SYNGENTA CROP PROTECTION AG, priority 2019, dated 2025):

Experiments:
Alternaria solani = Alternaria solani / tomato / leaf disc (early blight); type: in vivo; conditions: foliar, tomato leaf disks cv. Baby, inoculated 2 days after application, assessed 5-7 days after application, read-out: control of Alternaria solani (percent disease control compared to untreated)
Method: Example B1: Alternaria solani/Tomato/Leaf Disc (Early Blight) Tomato leaf disks cv. Baby are placed on agar in multiwell plates (24-well format) and sprayed with the formulated test compound diluted in water. The leaf disks are inoculated with a spore suspension of the fungus 2 days after application. The inoculated leaf disks are incubated at 23° C./21° C. […] […]-185.

[1] = tested on: Glomerella lagenarium (Colletotrichum lagenarium); experiment: Glomerella lagenarium (Colletotrichum lagenarium) / liquid culture (anthracnose); type: cell-based; conditions: Colletotrichum orbiculare, PDB potato dextrose broth, 24° C., 3-4 days after application, read-out: control of Glomerella lagenarium (inhibition of growth, photometric)
Procedure, shortened: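 Fungal growth inhibition measured photometrically 3-4 days post-application at 24° C. Spores were mixed directly into potato dextrose broth and dispensed onto test compound supplied in DMSO.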

[2] = tested on: Blumeria graminis f. sp. tritici (Erysiphe graminis f. sp. tritici); experiment: Blumeria graminis f. sp. tritici / wheat / leaf disc preventative (powdery mildew on wheat); type: in vivo; conditions: foliar, wheat leaf segments cv. Kanzler, inoculated 1 day after application, assessed 6-8 days after application, read-out: control of Blumeria graminis f. sp. tritici (percent disease control compared to untreated)
Text: Example B4: Blumeria graminis f. sp. tritici (Erysiphe graminis f. sp. tritici)/Wheat/Leaf Disc Preventative (Powdery Mildew on Wheat) Wheat leaf segments cv. Kanzler are placed on agar in a multiwell plate (24-well format) and sprayed with the formulated test compound diluted in water. The leaf disks are inoculated by shaking powdery mildew infected plants above the test plates 1 day after application. […] […]-192.

[3] = tested on: Monographella nivalis (Microdochium nivale); experiment: Monographella nivalis (Microdochium nivale) / liquid culture (foot rot cereals); type: cell-based; conditions: PDB potato dextrose broth, 24° C., 4-5 days after application, read-out: control of Monographella nivalis (inhibition of growth, photometric)
Procedure, shortened: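 Growth inhibition measured by photometry 4-5 days post-application at 24° C. Compound was dispensed as DMSO solution, then PDB broth containing conidia from cryogenic storage was added.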

[4] = tested on: Puccinia recondita f. sp. tritici; experiment: Puccinia recondita f. sp. tritici / wheat / leaf disc preventative (brown rust); type: in vivo; conditions: foliar, wheat leaf segments cv. Kanzler, inoculated 1 day after application, assessed 7-9 days after application, read-out: control of Puccinia recondita f. sp. tritici, preventative (percent disease control compared to untreated)
Method: Example B11: Puccinia recondita f. sp. tritici/Wheat/Leaf Disc Preventative (Brown Rust) Wheat leaf segments cv. Kanzler are placed on agar in multiwell plates (24-well format) and sprayed with the formulated test compound diluted in water. The leaf disks are inoculated with a spore suspension of the fungus 1 day after application. The inoculated leaf segments are incubated at 19° C. and 75% rh under a light regime of 12 h light/12 h darkness in a climate cabinet and the activity of a compound is assessed as percent disease control compared to untreated when an appropriate level of disease damage appears in untreated check leaf segments (7-9 days after application). […] […]-190.

[5] = tested on: Magnaporthe grisea (Pyricularia oryzae); experiment: whole plant or invertebrate; type: in vivo; conditions: foliar, read-out: control of Magnaporthe grisea (percent disease control compared to untreated)
Pyrenophora teres = Pyrenophora teres / barley / leaf disc preventative (net blotch); type: in vivo; conditions: foliar, barley leaf segments cv. Hasso, inoculated 2 days after application, assessed 5-7 days after application, read-out: control of Pyrenophora teres (disease control compared to untreated)
Method: Example B13: Pyrenophora teres/Barley/Leaf Disc Preventative (Net Blotch) Barley leaf segments cv. Hasso are placed on agar in a multiwell plate (24-well format) and sprayed with the formulated test compound diluted in water. The leaf segments are inoculated with a spore suspension of the fungus 2 days after application. The inoculated leaf segments are incubated at 20° C. and 65% rh under a light regime of 12 h light/12 h darkness in a climate cabinet and the activity of a compound is assessed as disease control compared to untreated when an appropriate level of disease damage appears in untreated check leaf segments (5-7 days after application). […] […]-185.

[6] = tested on: Mycosphaerella graminicola (Septoria tritici); experiment: Mycosphaerella graminicola (Septoria tritici) / liquid culture (Septoria blotch); type: cell-based; conditions: Zymoseptoria tritici, PDB potato dextrose broth, 24° C., 4-5 days after application, read-out: control of Mycosphaerella graminicola (inhibition of growth, photometric)
Procedure, shortened: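 Fungal growth inhibition was read photometrically 4-5 days after application. Compound was dosed from a DMSO solution into liquid cultures of spores in potato dextrose broth, incubated at 24° C.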

[7] = tested on: Mycosphaerella arachidis (Cercospora arachidicola); experiment: Mycosphaerella arachidis (Cercospora arachidicola) / liquid culture (early leaf spot); type: cell-based; conditions: PDB potato dextrose broth, 24° C., 4-5 days after application, read-out: control of Mycosphaerella arachidis (inhibition of growth, photometric)
Method: Example B8: Mycosphaerella arachidis (Cercospora arachidicola)/Liquid Culture (Early Leaf Spot) Conidia of the fungus from cryogenic storage are directly mixed into nutrient broth (PDB potato dextrose broth). After placing a (DMSO) solution of test compound into a microtiter plate (96-well format), the nutrient broth containing the fungal spores is added. The test plates are incubated at 24° C. and the inhibition of growth is determined photometrically 4-5 days after application. […] […]-180.

COc1ccc(Nc2cc(F)nc(F)c2)nc1C(=O)NC1CCC12CCCC2 (centres unmarked) [Compound P-6, 6-[(2,6-difluoro-4-pyridyl)amino]-3-methoxy-N-spiro[3.4]octan-3-yl-pyridine-2-carboxamide]
≥ 80%: pest or weed control at 200 ppm (Alternaria solani) | inhibition at 20 ppm [1] | pest or weed control at 200 ppm [2] | inhibition at 20 ppm [3] | pest or weed control at 200 ppm [4] | pest or weed control at 200 ppm [5] | pest or weed control at 200 ppm (Pyrenophora teres) | inhibition at 20 ppm [6]

COc1ccc(Nc2cc(F)nc(F)c2)nc1C(=O)NCCC(C)C [Compound P-29, 6-[(2,6-difluoro-4-pyridyl)amino]-N-isopentyl-3-methoxy-pyridine-2-carboxamide]
≥ 80%: inhibition at 20 ppm [1] | pest or weed control at 200 ppm [2] | inhibition at 20 ppm [3] | pest or weed control at 200 ppm [4] | pest or weed control at 200 ppm [5] | pest or weed control at 200 ppm (Pyrenophora teres) | inhibition at 20 ppm [6]

COc1ccc(Nc2cnsc2)nc1C(=O)NC(C)CCCC(C)C (centres unmarked) [Compound P-36, N-(1,5-dimethylhexyl)-6-(isothiazol-4-ylamino)-3-methoxy-pyridine-2-carboxamide]
≥ 80%: inhibition at 20 ppm [1] | inhibition at 20 ppm [3] | inhibition at 20 ppm [7] | inhibition at 20 ppm [6]

COc1ccc(Nc2cc(F)cc(F)c2)nc1C(=O)NCC1COc2ccccc21 (centres unmarked) [Compound P-60, 6-(3,5-difluoroanilino)-N-(2,3-dihydrobenzofuran-3-ylmethyl)-3-methoxy-pyridine-2-carboxamide]
≥ 80%: pest or weed control at 200 ppm (Alternaria solani) | inhibition at 20 ppm [1] | inhibition at 20 ppm [3] | pest or weed control at 200 ppm [5] | inhibition at 20 ppm [6]

COc1ccc(Nc2cc(F)cc(F)c2)nc1C(=O)NC1COC(C2CC2)C1 (centres unmarked) [Compound P-65, N-(5-cyclopropyltetrahydrofuran-3-yl)-6-(3,5-difluoroanilino)-3-methoxy-pyridine-2-carboxamide]
≥ 80%: pest or weed control at 200 ppm (Alternaria solani) | inhibition at 20 ppm [1] | pest or weed control at 200 ppm [2] | inhibition at 20 ppm [3] | pest or weed control at 200 ppm [5] | inhibition at 20 ppm [6]

COc1ccc(Nc2cc(F)cc(F)c2)nc1C(=O)NCc1c(Cl)cncc1Cl [Compound P-66, N-[(3,5-dichloro-4-pyridyl)methyl]-6-(3,5-difluoroanilino)-3-methoxy-pyridine-2-carboxamide]
≥ 80%: pest or weed control at 200 ppm (Alternaria solani) | inhibition at 20 ppm [1] | inhibition at 20 ppm [3] | pest or weed control at 200 ppm [5] | inhibition at 20 ppm [6]

COc1ccc(Nc2cc(F)cc(F)c2)nc1C(=O)NCC1(C)CCOC1 (centres unmarked) [Compound P-68, 6-(3,5-difluoroanilino)-3-methoxy-N-[(3-methyltetrahydrofuran-3-yl)methyl]pyridine-2-carboxamide]
≥ 80%: pest or weed control at 200 ppm (Alternaria solani) | inhibition at 20 ppm [1] | pest or weed control at 200 ppm [2] | inhibition at 20 ppm [3] | pest or weed control at 200 ppm [5] | inhibition at 20 ppm [6]

COc1ccc(Nc2cc(F)cc(F)c2)nc1C(=O)NC1COC2(CC2)C1 (centres unmarked) [Compound P-70, 6-(3,5-difluoroanilino)-3-methoxy-N-(4-oxaspiro[2.4]heptan-6-yl)pyridine-2-carboxamide]
≥ 80%: pest or weed control at 200 ppm (Alternaria solani) | inhibition at 20 ppm [1] | pest or weed control at 200 ppm [2] | inhibition at 20 ppm [3] | pest or weed control at 200 ppm [4] | pest or weed control at 200 ppm [5] | inhibition at 20 ppm [6]

COc1ccc(Nc2cc(F)cc(F)c2)nc1C(=O)NC1C2CCOC2C1(C)C (centres unmarked) [Compound P-76, 6-(3,5-difluoroanilino)-N-(7,7-dimethyl-2-oxabicyclo[3.2.0]heptan-6-yl)-3-methoxy-pyridine-2-carboxamide]
≥ 80%: pest or weed control at 200 ppm (Alternaria solani) | inhibition at 20 ppm [1] | pest or weed control at 200 ppm [2] | inhibition at 20 ppm [3] | pest or weed control at 200 ppm [4] | pest or weed control at 200 ppm [5] | pest or weed control at 200 ppm (Pyrenophora teres) | inhibition at 20 ppm [6]

COc1ccc(Nc2cc(F)cc(F)c2)nc1C(=O)NC1CCS(=O)(=O)CC1 [Compound P-78, 6-(3,5-difluoroanilino)-N-(1,1-dioxothian-4-yl)-3-methoxy-pyridine-2-carboxamide]
≥ 80%: pest or weed control at 200 ppm (Alternaria solani)

COc1ccc(Nc2cnsc2)nc1C(=O)NCC1(C(F)(F)F)CC1 [Compound P-83, 6-(isothiazol-4-ylamino)-3-methoxy-N-[[1-(trifluoromethyl)cyclopropyl]methyl]pyridine-2-carboxamide]
≥ 80%: pest or weed control at 200 ppm (Alternaria solani) | inhibition at 20 ppm [1] | pest or weed control at 200 ppm [2] | inhibition at 20 ppm [3] | inhibition at 20 ppm [6]

C#CCOc1ccc(Nc2cc(F)cc(F)c2)nc1C(=O)NC1CCC1(C)C (centres unmarked) [Compound P-86, 6-(3,5-difluoroanilino)-N-(2,2-dimethylcyclobutyl)-3-prop-2-ynoxy-pyridine-2-carboxamide]
≥ 80%: pest or weed control at 200 ppm (Alternaria solani) | inhibition at 20 ppm [1] | inhibition at 20 ppm [3]

CC(C)Oc1ccc(Nc2cc(F)cc(F)c2)nc1C(=O)NC1CCC1(C)C (centres unmarked) [Compound P-87, 6-(3,5-difluoroanilino)-N-(2,2-dimethylcyclobutyl)-3-isopropoxy-pyridine-2-carboxamide]
≥ 80%: pest or weed control at 200 ppm (Alternaria solani) | inhibition at 20 ppm [1] | inhibition at 20 ppm [3] | pest or weed control at 200 ppm [5]

COc1ccc(Nc2cc(F)nc(F)c2)nc1C(=O)NC1(C)CCCCC1 [Compound P-110, 6-[(2,6-difluoro-4-pyridyl)amino]-3-methoxy-N-(1-methylcyclohexyl)pyridine-2-carboxamide]
≥ 80%: pest or weed control at 200 ppm (Alternaria solani) | inhibition at 20 ppm [1] | pest or weed control at 200 ppm [2] | inhibition at 20 ppm [3] | pest or weed control at 200 ppm [4] | pest or weed control at 200 ppm [5] | inhibition at 20 ppm [6]

COc1ccc(Nc2cc(F)nc(F)c2)nc1C(=O)NC1(C#N)CCCC1 [Compound P-125, N-(1-cyanocyclopentyl)-6-[(2,6-difluoro-4-pyridyl)amino]-3-methoxy-pyridine-2-carboxamide]
≥ 80%: pest or weed control at 200 ppm (Alternaria solani) | pest or weed control at 200 ppm [2] | pest or weed control at 200 ppm [4] | pest or weed control at 200 ppm [5]

COc1ccc(Nc2cc(Cl)cc(Cl)c2)nc1C(=O)NC(C)(C)C [Compound P-148, N-tert-butyl-6-(3,5-dichloroanilino)-3-methoxy-pyridine-2-carboxamide]
≥ 80%: pest or weed control at 200 ppm (Alternaria solani) | inhibition at 20 ppm [1] | inhibition at 20 ppm [3] | pest or weed control at 200 ppm [4] | pest or weed control at 200 ppm [5] | inhibition at 20 ppm [6]
